Experiments:
[1] = biological target: T1, Protein mono-ADP-ribosyltransferase PARP10 (Homo sapiens, UniProt Q53GL7); assay: Inhibition of human PARP-10 using NAD+ as substrate incubated for 10 mins by fluorescence based analysis
T1 sequence (Q53GL7 whole entry): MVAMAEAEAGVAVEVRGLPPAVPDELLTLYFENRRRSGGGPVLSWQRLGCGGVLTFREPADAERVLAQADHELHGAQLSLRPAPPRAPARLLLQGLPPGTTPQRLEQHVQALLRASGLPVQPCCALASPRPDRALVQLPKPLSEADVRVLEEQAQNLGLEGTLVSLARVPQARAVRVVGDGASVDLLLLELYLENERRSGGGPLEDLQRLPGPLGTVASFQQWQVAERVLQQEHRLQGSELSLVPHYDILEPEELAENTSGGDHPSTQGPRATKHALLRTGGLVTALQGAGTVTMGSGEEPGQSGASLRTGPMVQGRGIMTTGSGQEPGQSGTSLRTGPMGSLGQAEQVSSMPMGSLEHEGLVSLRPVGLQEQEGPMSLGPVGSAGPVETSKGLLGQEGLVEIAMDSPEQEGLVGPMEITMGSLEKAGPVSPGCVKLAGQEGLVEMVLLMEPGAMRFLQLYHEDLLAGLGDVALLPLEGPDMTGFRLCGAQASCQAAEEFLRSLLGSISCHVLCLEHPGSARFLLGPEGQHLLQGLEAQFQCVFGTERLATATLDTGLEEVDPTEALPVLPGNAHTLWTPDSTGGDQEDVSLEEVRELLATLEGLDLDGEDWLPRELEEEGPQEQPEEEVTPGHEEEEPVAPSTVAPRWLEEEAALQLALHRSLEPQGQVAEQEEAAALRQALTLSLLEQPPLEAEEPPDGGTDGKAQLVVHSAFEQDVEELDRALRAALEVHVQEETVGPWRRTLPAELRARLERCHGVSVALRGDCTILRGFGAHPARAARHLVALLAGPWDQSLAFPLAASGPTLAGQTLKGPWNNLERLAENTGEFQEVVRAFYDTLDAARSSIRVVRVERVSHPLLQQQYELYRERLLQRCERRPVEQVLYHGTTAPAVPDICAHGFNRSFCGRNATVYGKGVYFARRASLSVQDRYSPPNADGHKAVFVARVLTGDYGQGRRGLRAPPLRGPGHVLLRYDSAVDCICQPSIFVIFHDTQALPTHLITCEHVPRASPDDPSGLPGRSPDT

[2] = biological target: T2, Protein mono-ADP-ribosyltransferase PARP15 (Homo sapiens, UniProt Q460N3); assay: Inhibition of human N-terminal 6His-tagged PARP15 (460 to 656 residues) expressed in Escherichia coli Rosetta2 (DE3) cells using NAD+ as substrate incubated for 10 mins by fluorescence based analysis
T2 sequence (Q460N3 whole entry): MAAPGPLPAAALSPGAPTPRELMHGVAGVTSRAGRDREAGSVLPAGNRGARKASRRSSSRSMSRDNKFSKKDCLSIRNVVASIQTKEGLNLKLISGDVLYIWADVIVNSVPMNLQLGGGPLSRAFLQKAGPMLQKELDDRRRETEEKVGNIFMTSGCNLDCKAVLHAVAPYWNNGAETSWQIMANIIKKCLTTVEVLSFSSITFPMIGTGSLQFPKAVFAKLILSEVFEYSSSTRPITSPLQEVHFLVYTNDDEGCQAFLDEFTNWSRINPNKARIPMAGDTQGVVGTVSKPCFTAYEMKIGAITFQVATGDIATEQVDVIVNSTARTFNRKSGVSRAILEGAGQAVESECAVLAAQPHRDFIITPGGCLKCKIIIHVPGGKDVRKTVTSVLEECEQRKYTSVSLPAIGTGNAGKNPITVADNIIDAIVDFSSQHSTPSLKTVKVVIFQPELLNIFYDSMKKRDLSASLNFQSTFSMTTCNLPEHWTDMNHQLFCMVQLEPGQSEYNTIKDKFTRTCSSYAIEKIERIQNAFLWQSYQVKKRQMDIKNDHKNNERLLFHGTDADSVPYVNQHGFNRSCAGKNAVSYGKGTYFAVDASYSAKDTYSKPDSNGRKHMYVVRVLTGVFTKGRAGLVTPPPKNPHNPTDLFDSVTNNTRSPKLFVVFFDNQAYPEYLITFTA

[3] = biological target: Protein mono-ADP-ribosyltransferase PARP14 (Homo sapiens, UniProt Q460N5); assay: Inhibition of human PARP14 using NAD+ as substrate incubated for 10 mins by fluorescence based analysis
Protein mono-ADP-ribosyltransferase PARP14, sequence (Q460N5 whole entry): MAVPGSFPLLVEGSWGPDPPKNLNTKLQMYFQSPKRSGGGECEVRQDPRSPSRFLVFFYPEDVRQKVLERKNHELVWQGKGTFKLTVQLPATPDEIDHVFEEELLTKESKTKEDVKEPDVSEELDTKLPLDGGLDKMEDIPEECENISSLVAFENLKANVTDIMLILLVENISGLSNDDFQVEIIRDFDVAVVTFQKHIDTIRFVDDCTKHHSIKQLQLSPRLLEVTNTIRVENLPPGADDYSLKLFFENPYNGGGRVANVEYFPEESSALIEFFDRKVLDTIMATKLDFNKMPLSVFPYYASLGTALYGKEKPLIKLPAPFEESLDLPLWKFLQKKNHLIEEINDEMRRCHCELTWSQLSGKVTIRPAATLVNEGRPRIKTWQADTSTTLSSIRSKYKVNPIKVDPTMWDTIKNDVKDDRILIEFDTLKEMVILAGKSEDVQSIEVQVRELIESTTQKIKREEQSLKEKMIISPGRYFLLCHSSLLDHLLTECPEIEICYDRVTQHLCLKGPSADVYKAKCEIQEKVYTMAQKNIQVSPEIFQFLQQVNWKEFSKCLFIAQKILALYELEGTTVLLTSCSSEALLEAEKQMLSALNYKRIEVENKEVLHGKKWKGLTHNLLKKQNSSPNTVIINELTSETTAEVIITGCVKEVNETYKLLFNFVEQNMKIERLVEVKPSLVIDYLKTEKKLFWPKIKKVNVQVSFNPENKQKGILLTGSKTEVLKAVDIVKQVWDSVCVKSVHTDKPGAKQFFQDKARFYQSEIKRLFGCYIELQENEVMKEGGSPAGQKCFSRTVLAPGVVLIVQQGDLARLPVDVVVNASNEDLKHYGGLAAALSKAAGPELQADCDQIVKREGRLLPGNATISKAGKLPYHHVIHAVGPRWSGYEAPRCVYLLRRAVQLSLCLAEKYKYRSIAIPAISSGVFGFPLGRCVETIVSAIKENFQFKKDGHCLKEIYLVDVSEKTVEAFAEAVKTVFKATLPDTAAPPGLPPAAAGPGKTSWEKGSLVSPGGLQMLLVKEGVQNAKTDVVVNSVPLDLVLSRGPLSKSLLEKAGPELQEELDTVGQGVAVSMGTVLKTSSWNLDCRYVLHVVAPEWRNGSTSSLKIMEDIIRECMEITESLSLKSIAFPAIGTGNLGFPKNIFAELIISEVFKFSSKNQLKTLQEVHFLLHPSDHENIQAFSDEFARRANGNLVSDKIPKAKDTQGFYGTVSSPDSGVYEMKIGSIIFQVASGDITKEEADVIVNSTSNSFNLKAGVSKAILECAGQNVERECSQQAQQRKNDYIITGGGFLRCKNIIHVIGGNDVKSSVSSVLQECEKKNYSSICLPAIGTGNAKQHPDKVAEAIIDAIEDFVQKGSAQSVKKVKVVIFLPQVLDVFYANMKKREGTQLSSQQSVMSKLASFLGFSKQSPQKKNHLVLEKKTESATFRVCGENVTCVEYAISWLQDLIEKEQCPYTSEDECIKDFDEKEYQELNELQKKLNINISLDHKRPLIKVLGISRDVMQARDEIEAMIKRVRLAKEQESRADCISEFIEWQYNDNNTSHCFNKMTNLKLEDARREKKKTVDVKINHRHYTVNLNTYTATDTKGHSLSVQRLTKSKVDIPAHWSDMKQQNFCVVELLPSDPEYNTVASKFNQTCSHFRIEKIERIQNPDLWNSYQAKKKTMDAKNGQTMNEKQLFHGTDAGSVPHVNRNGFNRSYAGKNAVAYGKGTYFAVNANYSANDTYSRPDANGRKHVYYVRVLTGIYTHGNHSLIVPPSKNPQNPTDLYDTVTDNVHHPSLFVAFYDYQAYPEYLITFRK

[4] = biological target: Poly [ADP-ribose] polymerase 2 (Homo sapiens, UniProt Q9UGN5); assay: Inhibition of human PARP2 using NAD+ as substrate incubated for 10 mins by fluorescence based analysis
Poly [ADP-ribose] polymerase 2, sequence (Q9UGN5 whole entry, the tested form may be a part): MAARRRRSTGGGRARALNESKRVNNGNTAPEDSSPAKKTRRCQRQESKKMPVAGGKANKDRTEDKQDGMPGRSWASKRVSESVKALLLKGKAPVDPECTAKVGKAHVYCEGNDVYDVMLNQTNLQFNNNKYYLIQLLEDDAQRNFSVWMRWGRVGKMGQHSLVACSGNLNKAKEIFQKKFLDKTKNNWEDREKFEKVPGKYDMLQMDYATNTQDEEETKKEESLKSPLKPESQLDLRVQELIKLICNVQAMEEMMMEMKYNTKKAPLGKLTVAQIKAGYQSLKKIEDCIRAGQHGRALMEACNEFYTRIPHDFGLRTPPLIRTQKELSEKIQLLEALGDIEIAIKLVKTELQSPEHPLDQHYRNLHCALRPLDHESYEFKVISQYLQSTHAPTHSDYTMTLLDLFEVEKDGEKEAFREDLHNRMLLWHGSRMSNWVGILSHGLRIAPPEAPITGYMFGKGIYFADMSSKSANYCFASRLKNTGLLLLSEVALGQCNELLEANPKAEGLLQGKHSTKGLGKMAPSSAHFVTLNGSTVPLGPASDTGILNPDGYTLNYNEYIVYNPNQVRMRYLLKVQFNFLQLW

[5] = biological target: T3, Poly [ADP-ribose] polymerase tankyrase-2 (Homo sapiens, UniProt Q9H2K2); assay: Inhibition of human N-terminal 6His-tagged TNKS2 (1030 to 1317 residues) expressed in Escherichia coli Rosetta2 (DE3) cells using NAD+ as substrate incubated for 10 mins by fluorescence based analysis
T3 sequence (Q9H2K2 whole entry): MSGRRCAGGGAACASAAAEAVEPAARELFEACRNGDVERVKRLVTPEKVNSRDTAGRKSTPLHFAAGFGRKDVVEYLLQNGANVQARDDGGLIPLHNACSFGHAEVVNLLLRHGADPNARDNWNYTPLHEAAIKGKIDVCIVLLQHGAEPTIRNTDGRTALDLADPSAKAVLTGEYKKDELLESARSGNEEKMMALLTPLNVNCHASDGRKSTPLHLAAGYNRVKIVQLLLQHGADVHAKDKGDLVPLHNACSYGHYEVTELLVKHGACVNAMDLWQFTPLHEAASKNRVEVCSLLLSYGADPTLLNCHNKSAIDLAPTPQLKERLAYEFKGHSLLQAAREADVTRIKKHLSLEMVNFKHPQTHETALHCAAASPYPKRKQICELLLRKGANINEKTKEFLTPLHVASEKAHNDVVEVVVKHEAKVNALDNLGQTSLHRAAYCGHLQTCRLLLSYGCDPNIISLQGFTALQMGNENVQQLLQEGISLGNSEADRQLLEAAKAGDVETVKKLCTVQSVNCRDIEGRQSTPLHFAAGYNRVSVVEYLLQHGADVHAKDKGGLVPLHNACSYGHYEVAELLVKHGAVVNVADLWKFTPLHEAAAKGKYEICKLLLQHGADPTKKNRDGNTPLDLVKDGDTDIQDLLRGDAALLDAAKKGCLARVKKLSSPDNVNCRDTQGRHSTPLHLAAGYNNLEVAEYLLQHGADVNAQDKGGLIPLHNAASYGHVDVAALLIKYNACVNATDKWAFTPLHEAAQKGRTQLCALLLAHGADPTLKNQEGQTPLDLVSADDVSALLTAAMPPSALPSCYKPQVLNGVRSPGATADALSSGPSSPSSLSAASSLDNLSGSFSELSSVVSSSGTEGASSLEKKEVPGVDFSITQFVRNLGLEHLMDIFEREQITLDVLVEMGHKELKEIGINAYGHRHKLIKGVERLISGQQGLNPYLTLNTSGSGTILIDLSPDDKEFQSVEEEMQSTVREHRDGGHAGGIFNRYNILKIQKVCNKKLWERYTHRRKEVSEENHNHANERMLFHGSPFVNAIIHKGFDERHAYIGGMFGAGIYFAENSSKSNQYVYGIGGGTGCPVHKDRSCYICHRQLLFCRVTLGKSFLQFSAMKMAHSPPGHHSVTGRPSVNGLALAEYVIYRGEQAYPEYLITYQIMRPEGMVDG

HEK-293T [6] = assay: Cytotoxicity against HEK293T cells assessed as reduction in cell viability at 10 uM measured after 24 hrs by WST-1 assay; type: toxicity, cell-based; conditions: human
HeLa = assay: Rescue of cell viability in human HeLa cells expressing wild type PARP10 at upto 10 uM incubated for 10 to 12 days by methylene blue dye based colony formation assay; type: functional
HEK-293T [7] = assay: Cytotoxicity against HEK293T cells assessed as reduction in cell viability at 100 uM measured after 24 hrs by WST-1 assay; type: toxicity, cell-based; conditions: human
[8] = biological target: T2, Protein mono-ADP-ribosyltransferase PARP15; assay: Inhibition of PARP15 (unknown origin)

Row | Structure (SMILES) | IC50 [1] [µM] | IC50 [2] [µM] | IC50 [3] [µM] | IC50 [4] [µM] | IC50 [5] [µM] | Activity (HEK-293T [6]) | EC50 (HeLa) [µM] | Activity (HEK-293T [7]) | IC50 [8] [µM]
1 | O=c1[nH][nH]c(=O)c2cc(OCc3cccc(Br)c3)ccc12 | 1.2 | 1.3 | > 100 | > 100 | > 100 | Non-Toxic | – | – | –
2 | NC(=O)c1ccc(OCC2CCCCC2)cc1OCc1ccccn1 | > 10 | > 10 | > 10 | > 100 | > 100 | Non-Toxic | – | – | –
3 | COc1ccccc1COc1ccc(C(N)=O)c(F)c1 | 8.2 | > 10 | 6.8 | > 100 | > 100 | Non-Toxic | – | – | –
4 | COc1cc(OCc2cccc3ccccc23)ccc1C(N)=O | 5 | 2.2 | > 100 | > 100 | > 100 | Non-Toxic | – | – | –
5 | NC(=O)c1ccc(OCC2CCCCC2)cc1 | 1.7 | 3.6 | > 100 | > 100 | > 100 | Non-Toxic | – | – | –
6 | NC(=O)c1ccc(OCC2CCC2)cc1OCCN1CCNCC1 | > 10 | > 10 | > 10 | > 100 | > 100 | Non-Toxic | – | – | –
7 | O=c1[nH][nH]c(=O)c2cc(OCC3CC3)ccc12 | 0.31 | 1.2 | > 10 | > 100 | > 100 | Non-Toxic | – | – | –
8 | O=c1[nH][nH]c(=O)c2cc(OCC3CCCCC3)ccc12 | 0.14 | 0.4 | – | – | – | Non-Toxic | 1.5 | – | –
9 | NC(=O)c1ccc(OCC2CCC2)cc1F | 0.62 | 6 | > 10 | > 100 | > 100 | Non-Toxic | – | – | –
10 | NC(=O)c1ccc(OCc2cncs2)cc1 | 1.6 | 2.4 | > 10 | > 100 | > 100 | Non-Toxic | – | – | –
11 | COc1cc(OCC2CCCCC2)ccc1C(N)=O | 4.4 | 5 | > 100 | > 100 | > 100 | Non-Toxic | – | – | –
12 | NC(=O)c1ccc(OCc2cccc(Br)c2)cc1F | 1.5 | 0.6 | > 10 | > 100 | > 100 | Non-Toxic | – | – | –
13 | O=c1[nH][nH]c(=O)c2cc(OCC3CCC3)ccc12 | 0.16 | 0.37 | > 10 | > 100 | > 100 | Non-Toxic | – | – | –
14 | O=c1[nH][nH]c(=O)c2cc(OCC3CCCC3)ccc12 | 0.13 | 0.32 | > 10 | > 100 | > 100 | Non-Toxic | – | – | –
15 | COc1cc(OCc2ccccc2F)ccc1C(N)=O | 1.9 | 2.6 | > 10 | > 100 | > 100 | Non-Toxic | – | Toxic | –
16 | Cc1cccc(C(=O)N[C@H](C(N)=O)C(=O)c2ccc3c(=O)[nH][nH]c(=O)c3c2)c1 | – | – | – | – | – | – | – | – | 0.2
17 | COc1cc(OCc2cccc(Br)c2)ccc1C(N)=O | > 10 | 2.5 | > 100 | > 100 | > 100 | Non-Toxic | – | – | –
18 | NC(=O)c1ccc(OCC2CC2)cc1 | 0.6 | 4.8 | > 10 | 53 | > 100 | Non-Toxic | – | – | –
19 | NC(=O)c1ccc(OCC2CCCCC2)cc1F | 0.96 | > 10 | > 10 | > 100 | > 100 | Non-Toxic | – | – | –
20 | O=c1[nH][nH]c(=O)c2cc(OCc3ccccc3F)ccc12 | 0.15 | 0.37 | – | – | – | Non-Toxic | 1.6 | – | –
21 | O=c1[nH][nH]c(=O)c2cc(OCc3ccsc3)ccc12 | 0.16 | 0.4 | – | – | – | Non-Toxic | 0.95 | – | –
22 | NC(=O)c1ccc(OCC2CCCC2)cc1 | 0.59 | 3.8 | > 10 | > 100 | > 100 | Non-Toxic | – | – | –

Reference: ChEMBL document CHEMBL5120855, “Potent 2,3-dihydrophthalazine-1,4-dione derivatives as dual inhibitors for mono-ADP-ribosyltransferases PARP10 and PARP15” (Eur J Med Chem, 2022)
